According to patent EP0908457B1, “3-(1,2-benzisothiazol- and isoxazol-5-Y1)-2,4(1H,3H)-pyrimidinedione or thione and 3-(1,2-benzisothiazol- and isoxazol-5-y1)-4(3H)-pyrimidinone or thione herbicidal agents” (BASF AKTIENGESELLSCHAFT, priority 1997, dated 1999):

Columns and labels:
[1] = test system: Oryza sativa, (L.) Tebonnet; test: Rice tolerance to post-transplant applications under flooded paddy conditions (Example 187), ORYSAT (Rice, Tebonnet); settings: for ORYSAT: herbicidal effect rating 0-9, three to four weeks after treatment; for herbicidal effect rating ORYSAT: meaning of each grade not given here
Cyperus iria = test: Preemergence weed control under flooded paddy conditions, CYPIR (Rice Flatsedge); type: in vivo; settings: flooded paddy; for CYPIR: herbicidal effect rating 0-9, three to four weeks after treatment; for herbicidal effect rating, CYPIR: meaning of each grade not given here
[2] = test system: Echinochloa oryzoides (Ard.) Fritsch.; test: Preemergence weed control under flooded paddy conditions, ECHORC (Watergrass (Calif.)); type: in vivo; settings: flooded paddy; for ECHORC: herbicidal effect rating 0-9, three to four weeks after treatment; for herbicidal effect rating, ECHORC: meaning of each grade not given here
[3] = test system: Cyperus serotinus, Rottb.; test: Preemergence weed control under flooded paddy conditions, CYPSE (Flatsedge); type: in vivo; settings: for CYPSE: herbicidal effect rating 0-9, three to four weeks after treatment; for herbicidal effect rating, CYPSE: meaning of each grade not given here
Sagittaria pygmaea, L. = test: Preemergence weed control under flooded paddy conditions, SAGPY (Arrowhead (Pygmaea)); type: in vivo; settings: flooded paddy; for SAGPY: herbicidal effect rating 0-9, three to four weeks after treatment; for herbicidal effect rating, SAGPY: meaning of each grade not given here
[4] = test system: Monochoria vaginalis, Presl.; test: Preemergence weed control under flooded paddy conditions, MOOVA (Monochoria); type: in vivo; settings: flooded paddy; for MOOVA: herbicidal effect rating 0-9, three to four weeks after treatment; for herbicidal effect rating, MOOVA: meaning of each grade not given here
[5] = 0.0320 kg/ha, preemergence, rated three to four weeks after treatment
[6] = 0.0620 kg/ha, preemergence, rated three to four weeks after treatment
[7] = 0.1250 kg/ha, preemergence, rated three to four weeks after treatment
[8] = 0.2500 kg/ha, preemergence, rated three to four weeks after treatment
[9] = Rate 0.0320 kg/ha, preemergence weeds, rated three to four weeks after treatment
[10] = Rate 0.0620 kg/ha, preemergence weeds, rated three to four weeks after treatment
[11] = Rate 0.1250 kg/ha, preemergence weeds, rated three to four weeks after treatment
[12] = Rate 0.2500 kg/ha, preemergence weeds, rated three to four weeks after treatment
[13] = 0.0320 kg/ha, preemergence weeds
[14] = 0.0620 kg/ha, preemergence weeds
[15] = 0.1250 kg/ha, preemergence weeds
[16] = 0.2500 kg/ha, preemergence weeds
[17] = Rate 0.0320 kg/ha, preemergence, rated 3-4 weeks after treatment
[18] = Rate 0.0620 kg/ha, preemergence, rated 3-4 weeks after treatment
[19] = Rate 0.1250 kg/ha, preemergence, rated 3-4 weeks after treatment
[20] = Rate 0.2500 kg/ha, preemergence, rated 3-4 weeks after treatment

C=CCOC(=O)C(C)(C)c1nsc2ccc(-n3c(=O)cc(C(F)(F)F)n(C)c3=O)cc12 [Example 491, 1,2-Benzisothiazole-3-acetic acid, 5-[3,6-dihydro-3-methyl-2,6-dioxo-4-(trifluoromethyl)-1(2H)-pyrimidinyl]-alpha,alpha-dimethyl-, allyl ester]
ORYSAT herbicidal rating (rice tolerance) ([1]; 0.0320 kg/ha, rated three to four weeks after treatment): 5.0
ORYSAT herbicidal rating (rice tolerance) ([1]; 0.0620 kg/ha, rated three to four weeks after treatment): 6.5
ORYSAT herbicidal rating (rice tolerance) ([1]; 0.1250 kg/ha, rated three to four weeks after treatment): 8.0
ORYSAT herbicidal rating (rice tolerance) ([1]; 0.2500 kg/ha, rated three to four weeks after treatment): 7.5
CYPIR herbicidal rating (Cyperus iria; [5]): 7.5
CYPIR herbicidal rating (Cyperus iria; [6]): 9.0
CYPIR herbicidal rating (Cyperus iria; [7]): 9.0
CYPIR herbicidal rating (Cyperus iria; [8]): 9.0
ECHORC herbicidal rating [2, 5]: 9.0
ECHORC herbicidal rating [2, 6]: 9.0
ECHORC herbicidal rating [2, 7]: 9.0
ECHORC herbicidal rating [2, 8]: 9.0
CYPSE herbicidal rating [3, 5]: 7.0
CYPSE herbicidal rating [3, 6]: 9.0
CYPSE herbicidal rating [3, 7]: 9.0
CYPSE herbicidal rating [3, 8]: 9.0
SAGPY herbicidal rating (Sagittaria pygmaea, L.; [5]): 5.0
SAGPY herbicidal rating (Sagittaria pygmaea, L.; [6]): 5.5
SAGPY herbicidal rating (Sagittaria pygmaea, L.; [7]): 9.0
SAGPY herbicidal rating (Sagittaria pygmaea, L.; [8]): 9.0
MOOVA herbicidal rating [4, 5]: 9.0
MOOVA herbicidal rating [4, 6]: 9.0
MOOVA herbicidal rating [4, 7]: 9.0
MOOVA herbicidal rating [4, 8]: 9.0

COC(=O)COc1cccc(-c2nsc3ccc(-n4c(=O)cc(C(F)(F)F)n(C)c4=O)cc23)c1 [Example 332, Acetic acid, {m-{5-[3,6-dihydro-3-methyl-2,6-dioxo-4-(trifluoromethyl)-1(2H)-pyrimidinyl]-1,2-benzisothiazol-3-yl}phenoxy}-, methyl ester]
herbicidal effect rating ORYSAT ([1]; Rate 0.0320 kg/ha, rated three to four weeks after treatment): 5.5
herbicidal effect rating ORYSAT ([1]; Rate 0.0620 kg/ha, rated three to four weeks after treatment): 5.5
herbicidal effect rating ORYSAT ([1]; Rate 0.1250 kg/ha, rated three to four weeks after treatment): 5.5
herbicidal effect rating ORYSAT ([1]; Rate 0.2500 kg/ha, rated three to four weeks after treatment): 7.5
herbicidal effect rating, CYPIR (Cyperus iria; [9]): 9.0
herbicidal effect rating, CYPIR (Cyperus iria; [10]): 9.0
herbicidal effect rating, CYPIR (Cyperus iria; [11]): 9.0
herbicidal effect rating, CYPIR (Cyperus iria; [12]): 9.0
herbicidal effect rating, ECHORC [2, 9]: 6.5
herbicidal effect rating, ECHORC [2, 10]: 8.5
herbicidal effect rating, ECHORC [2, 11]: 9.0
herbicidal effect rating, ECHORC [2, 12]: 9.0
herbicidal effect rating, CYPSE [3, 9]: 4.0
herbicidal effect rating, CYPSE [3, 10]: 4.5
herbicidal effect rating, CYPSE [3, 11]: 4.5
herbicidal effect rating, CYPSE [3, 12]: 7.5
herbicidal effect rating, SAGPY (Sagittaria pygmaea, L.; [9]): 3.0
herbicidal effect rating, SAGPY (Sagittaria pygmaea, L.; [10]): 3.5
herbicidal effect rating, SAGPY (Sagittaria pygmaea, L.; [11]): 6.5
herbicidal effect rating, SAGPY (Sagittaria pygmaea, L.; [12]): 9.0
herbicidal effect rating, MOOVA [4, 9]: 9.0
herbicidal effect rating, MOOVA [4, 10]: 9.0
herbicidal effect rating, MOOVA [4, 11]: 9.0
herbicidal effect rating, MOOVA [4, 12]: 9.0

Cn1c(C(F)(F)F)cc(=O)n(-c2ccc3snc(C(Br)S(=O)(=O)c4ccccc4)c3c2)c1=O (stereo not drawn) [Example 407, 2,4(1H,3H)-Pyrimidinedione, 3-{3-[bromo(phenylsulfonyl)methyl]-1,2-benzisothiazol-5-yl}-1-methyl-6-(trifluoromethyl)-]
ORYSAT ([1]; 0.0320 kg/ha): 0.0
ORYSAT ([1]; 0.0620 kg/ha): 2.0
ORYSAT ([1]; 0.1250 kg/ha): 3.0
ORYSAT ([1]; 0.2500 kg/ha): 5.0
CYPIR (Cyperus iria; [13]): 3.0
CYPIR (Cyperus iria; [14]): 4.0
CYPIR (Cyperus iria; [15]): 9.0
CYPIR (Cyperus iria; [16]): 9.0
ECHORC [2, 13]: 0.0
ECHORC [2, 14]: 3.0
ECHORC [2, 15]: 7.0
ECHORC [2, 16]: 7.0
CYPSE [3, 13]: 0.0
CYPSE [3, 14]: 0.0
CYPSE [3, 15]: 5.0
CYPSE [3, 16]: 7.0
SAGPY (Sagittaria pygmaea, L.; [13]): 0.0
SAGPY (Sagittaria pygmaea, L.; [14]): 2.0
SAGPY (Sagittaria pygmaea, L.; [15]): 6.0
SAGPY (Sagittaria pygmaea, L.; [16]): 7.0
MOOVA [4, 13]: 6.0
MOOVA [4, 14]: 7.0
MOOVA [4, 15]: 9.0
MOOVA [4, 16]: 9.0

CCCCCCCCCOC(=O)COc1ccc(C)cc1-c1nsc2ccc(-n3c(=O)cc(C(F)(F)F)n(C)c3=O)cc12 [Example 519, Acetic acid, {{2-{5-[3,6-dihydro-3-methyl-2,6-dioxo-4-(trifluoromethyl)-1(2H)-pyrimidinyl]-1,2-benzisothiazol-3-yl}-p-tolyl}oxy}-, nonyl ester]
herbicidal effect rating ORYSAT ([1]; Rate 0.0320 kg/ha, rated 3-4 weeks after treatment): 2.0
herbicidal effect rating ORYSAT ([1]; Rate 0.0620 kg/ha, rated 3-4 weeks after treatment): 4.0
herbicidal effect rating ORYSAT ([1]; Rate 0.1250 kg/ha, rated 3-4 weeks after treatment): 4.5
herbicidal effect rating ORYSAT ([1]; Rate 0.2500 kg/ha, rated 3-4 weeks after treatment): 4.0
herbicidal effect rating, CYPIR (Cyperus iria; [17]): 0.0
herbicidal effect rating, CYPIR (Cyperus iria; [18]): 0.0
herbicidal effect rating, CYPIR (Cyperus iria; [19]): 2.0
herbicidal effect rating, CYPIR (Cyperus iria; [20]): 6.0
herbicidal effect rating, ECHORC [2, 17]: 2.0
herbicidal effect rating, ECHORC [2, 18]: 4.0
herbicidal effect rating, ECHORC [2, 19]: 6.5
herbicidal effect rating, ECHORC [2, 20]: 9.0
herbicidal effect rating, CYPSE [3, 17]: 0.0
herbicidal effect rating, CYPSE [3, 18]: 0.0
herbicidal effect rating, CYPSE [3, 19]: 0.0
herbicidal effect rating, CYPSE [3, 20]: 0.0
herbicidal effect rating, SAGPY (Sagittaria pygmaea, L.; [17]): 0.0
herbicidal effect rating, SAGPY (Sagittaria pygmaea, L.; [18]): 0.0
herbicidal effect rating, SAGPY (Sagittaria pygmaea, L.; [19]): 0.0
herbicidal effect rating, SAGPY (Sagittaria pygmaea, L.; [20]): 0.0
herbicidal effect rating, MOOVA [4, 17]: 9.0
herbicidal effect rating, MOOVA [4, 18]: 9.0
herbicidal effect rating, MOOVA [4, 19]: 9.0
herbicidal effect rating, MOOVA [4, 20]: 9.0
